For this experiment, the system named is GM1 production in Jurkat cells. Kind of experiment: cells. Format: cell-based.

From US12522602B2, “Derivatives having 2,3-dihydro-1H-indene or 2,3-dihydrobenzofuran moiety or pharmaceutically acceptable salt thereof and pharmaceutical compositions comprising the same” (YUHAN CORPORATION, priority 2019, dated 2026) come the findings set out here.

pIC50: −log10 of the molar value. Read-outs that look alike come from different tables or passages of the source.

Usually pIC50 stands for the IC50 on a negative log10 scale, so that one unit is a factor of ten. For `CC(C)COc1cccc(-c2cc3c(cc2F)C(NC(=O)O[C@@H]2CN4CCC2CC4)C(C)(C)C3)c1` (stereo partly drawn) [Example 380, (S)-quinuclidin-3-yl (6-fluoro-5-(3-isobutoxyphenyl)-2,2-dimethyl-2,3-dihydro-1H-inden-1-yl)carbamate], the pIC50 (Homo sapiens, Jurkat, 72 h) is 7.44.
Still for that read-out and setting: in the case of `COc1ccc(-c2cc3c(cc2F)C(NC(=O)O[C@@H]2CN4CCC2CC4)C(C)(C)C3)c(OC)c1` (stereo partly drawn) [Example 381, (S)-quinuclidin-3-yl (5-(2,4-dimethoxyphenyl)-6-fluoro-2,2-dimethyl-2,3-dihydro-1H-inden-1-yl)carbamate] it was 7.22.
`COc1ccc(OC)c(-c2cc3c(cc2F)C(NC(=O)O[C@@H]2CN4CCC2CC4)C(C)(C)C3)c1` (stereo partly drawn) [Example 382, (S)-quinuclidin-3-yl (5-(2,5-dimethoxyphenyl)-6-fluoro-2,2-dimethyl-2,3-dihydro-1H-inden-1-yl)carbamate]: the pIC50 (Homo sapiens, Jurkat, 72 h) is 7.50.
Turning to `COc1cccc(OC)c1-c1cc2c(cc1F)C(NC(=O)O[C@@H]1CN3CCC1CC3)C(C)(C)C2` (stereo partly drawn) [Example 383, (S)-quinuclidin-3-yl (5-(2,6-dimethoxyphenyl)-6-fluoro-2,2-dimethyl-2,3-dihydro-1H-inden-1-yl)carbamate], under “Homo sapiens, Jurkat, 72 h”, the pIC50 was 6.91.
On the same count and under the same terms, in the case of `COc1cc(OC)cc(-c2cc3c(cc2F)C(NC(=O)O[C@@H]2CN4CCC2CC4)C(C)(C)C3)c1` (stereo partly drawn) [Example 384, (S)-quinuclidin-3-yl (5-(3,5-dimethoxyphenyl)-6-fluoro-2,2-dimethyl-2,3-dihydro-1H-inden-1-yl)carbamate] it was 7.08; in that of `COc1ccc(-c2cc3c(cc2F)C(NC(=O)O[C@@H]2CN4CCC2CC4)C(C)(C)C3)cc1OC` (stereo partly drawn) [Example 385, (S)-quinuclidin-3-yl (5-(3,4-dimethoxyphenyl)-6-fluoro-2,2-dimethyl-2,3-dihydro-1H-inden-1-yl)carbamate], 6.48.
As to `COc1ccc(-c2cc3c(cc2F)C(NC(=O)O[C@@H]2CN4CCC2CC4)C(C)(C)C3)c(Cl)c1` (stereo partly drawn) [Example 386, (S)-quinuclidin-3-yl (5-(2-chloro-4-methoxyphenyl)-6-fluoro-2,2-dimethyl-2,3-dihydro-1H-inden-1-yl)carbamate], where the note is “Homo sapiens, Jurkat, 72 h”, the pIC50 is 7.53.
Take `CCOc1ccc(-c2cc3c(cc2F)C(NC(=O)O[C@@H]2CN4CCC2CC4)C(C)(C)C3)cc1F` (stereo partly drawn) [Example 387, (S)-quinuclidin-3-yl (5-(4-ethoxy-3-fluorophenyl)-6-fluoro-2,2-dimethyl-2,3-dihydro-1H-inden-1-yl)carbamate]: the pIC50 (Homo sapiens, Jurkat, 72 h) was 7.32.
With `Cc1cc(-c2cc3c(cc2F)C(NC(=O)O[C@@H]2CN4CCC2CC4)C(C)(C)C3)cc(C)c1OC(C)C` (stereo partly drawn) [Example 388, (S)-quinuclidin-3-yl (6-fluoro-5-(4-isopropoxy-3,5-dimethylphenyl)-2,2-dimethyl-2,3-dihydro-1H-inden-1-yl)carbamate], the pIC50 (Homo sapiens, Jurkat, 72 h) is 7.03.
On to `O=C(NC1c2ccc(-c3ccc(F)cc3)cc2CC12CC2)O[C@@H]1CN2CCC1CC2` (stereo partly drawn) [Example 389, (S)-quinuclidin-3-yl (5′-(4-fluorophenyl)-1′,3′-dihydrospiro[cyclopropane-1,2′-inden]-1′-yl)carbamate], for which the negative logarithm of the IC50 (pIC50) (Homo sapiens, Jurkat, 72 h) is 7.12.
Still for that read-out and setting: in the case of `O=C(NC1c2ccc(-c3ccc(Cl)cc3)cc2CC12CC2)O[C@@H]1CN2CCC1CC2` (stereo partly drawn) [Example 390, (S)-quinuclidin-3-yl (5′-(4-chlorophenyl)-1′,3′-dihydrospiro[cyclopropane-1,2′-inden]-1′-yl)carbamate] it was 7.36; in that of `O=C(NC1c2ccc(-c3ccc(C(F)(F)F)cc3)cc2CC12CC2)O[C@@H]1CN2CCC1CC2` (stereo partly drawn) [Example 391, (S)-quinuclidin-3-yl (5′-(4-(trifluoromethyl)phenyl)-1′,3′-dihydrospiro[cyclopropane-1,2′-inden]-1′-yl)carbamate], 7.26.
Same read-out and setting: in the case of `O=C(NC1c2ccc(-c3ccc(OC(F)(F)F)cc3)cc2CC12CC2)O[C@@H]1CN2CCC1CC2` (stereo partly drawn) [Example 392, (S)-quinuclidin-3-yl (5′-(4-(trifluoromethoxy)phenyl)-1′,3′-dihydrospiro[cyclopropane-1,2′-inden]-1′-yl)carbamate] it was 7.38.
Still for that read-out and setting: in the case of `O=C(NC1c2ccc(-c3cccc(Cl)c3)cc2CC12CC2)O[C@@H]1CN2CCC1CC2` (stereo partly drawn) [Example 393, (S)-quinuclidin-3-yl (5′-(3-chlorophenyl)-1′,3′-dihydrospiro[cyclopropane-1,2′-inden]-1′-yl)carbamate] it was 7.26; in that of `O=C(NC1c2ccc(-c3cccc(C(F)(F)F)c3)cc2CC12CC2)O[C@@H]1CN2CCC1CC2` (stereo partly drawn) [Example 394, (S)-quinuclidin-3-yl (5′-(3-(trifluoromethyl)phenyl)-1′,3′-dihydrospiro[cyclopropane-1,2′-inden]-1′-yl)carbamate], 7.31; in that of `COCCOc1ccc(-c2ccc3c(c2)CC2(CC2)C3NC(=O)O[C@@H]2CN3CCC2CC3)cc1` (stereo partly drawn) [Example 395, (S)-quinuclidin-3-yl (5′-(4-(2-methoxyethoxy)phenyl)-1′,3′-dihydrospiro[cyclopropane-1,2′-inden]-1′-yl)carbamate], 7.51.
Take `COCCOc1cccc(-c2ccc3c(c2)CC2(CC2)C3NC(=O)O[C@@H]2CN3CCC2CC3)c1` (stereo partly drawn) [Example 396, (S)-quinuclidin-3-yl (5′-(3-(2-methoxyethoxy)phenyl)-1′,3′-dihydrospiro[cyclopropane-1,2′-inden]-1′-yl)carbamate]: under “Homo sapiens, Jurkat, 72 h”, the pIC50 is 7.40.
For the molecule `COCOc1ccc(-c2ccc3c(c2)CC2(CC2)C3NC(=O)O[C@@H]2CN3CCC2CC3)cc1` (stereo partly drawn) [Example 397, (S)-quinuclidin-3-yl (5′-(4-(methoxymethoxy)phenyl)-1′,3′-dihydrospiro[cyclopropane-1,2′-inden]-1′-yl)carbamate], for the setting “Homo sapiens, Jurkat, 72 h”, the pIC50 was 7.76.
Same read-out and setting: with `COCOc1cccc(-c2ccc3c(c2)CC2(CC2)C3NC(=O)O[C@@H]2CN3CCC2CC3)c1` (stereo partly drawn) [Example 398, (S)-quinuclidin-3-yl (5′-(3-(methoxymethoxy)phenyl)-1′,3′-dihydrospiro[cyclopropane-1,2′-inden]-1′-yl)carbamate] the figure was 7.44; with `CC1(C)CC(NC(=O)O[C@@H]2CN3CCC2CC3)c2ccc(-c3cccc(Cl)c3)cc21` (stereo partly drawn) [Example 399, (S)-quinuclidin-3-yl (5-(3-chlorophenyl)-3,3-dimethyl-2,3-dihydro-1H-inden-1-yl)carbamate], 7.36.
As to `CC1(C)CC(NC(=O)O[C@@H]2CN3CCC2CC3)c2ccc(-c3ccccc3Cl)cc21` (stereo partly drawn) [Example 400, (S)-quinuclidin-3-yl (5-(2-chlorophenyl)-3,3-dimethyl-2,3-dihydro-1H-inden-1-yl)carbamate], the pIC50 (Homo sapiens, Jurkat, 72 h) was 6.97.
`CC1(C)CC(NC(=O)O[C@@H]2CN3CCC2CC3)c2ccc(-c3cccc(C(F)(F)F)c3)cc21` (stereo partly drawn) [Example 401, (S)-quinuclidin-3-yl (3,3-dimethyl-5-(3-(trifluoromethyl)phenyl)-2,3-dihydro-1H-inden-1-yl)carbamate] showed a pIC50 (Homo sapiens, Jurkat, 72 h) of 7.82.
Regarding `CC1(C)CC(NC(=O)O[C@@H]2CN3CCC2CC3)c2ccc(-c3cccc(OC(F)(F)F)c3)cc21` (stereo partly drawn) [Example 402, (S)-quinuclidin-3-yl (3,3-dimethyl-5-(3-(trifluoromethoxy)phenyl)-2,3-dihydro-1H-inden-1-yl)carbamate], the pIC50 (Homo sapiens, Jurkat, 72 h) was 7.71.
On the same count and under the same terms, with `CC1(C)CC(NC(=O)O[C@@H]2CN3CCC2CC3)c2ccc(-c3ccccc3OC(F)(F)F)cc21` (stereo partly drawn) [Example 403, (S)-quinuclidin-3-yl (3,3-dimethyl-5-(2-(trifluoromethoxy)phenyl)-2,3-dihydro-1H-inden-1-yl)carbamate] the figure was 7.07; with `O=C(NC1COc2cc(-c3cccc(C(F)(F)F)c3)ccc21)O[C@@H]1CN2CCC1CC2` (stereo partly drawn) [Example 404, (S)-quinuclidin-3-yl (6-(3-(trifluoromethyl)phenyl)-2,3-dihydrobenzofuran-3-yl)carbamate], 7.59; with `O=C(NC1COc2cc(-c3cccc(OC(F)(F)F)c3)ccc21)O[C@@H]1CN2CCC1CC2` (stereo partly drawn) [Example 405, (S)-quinuclidin-3-yl (6-(3-(trifluoromethoxy)phenyl)-2,3-dihydrobenzofuran-3-yl)carbamate], 7.35.
The same measure, in the same setting: in the case of `CC1(C)Oc2ccc(-c3cccc(F)c3)cc2C1NC(=O)O[C@@H]1CN2CCC1CC2` (stereo partly drawn) [Example 406, (S)-quinuclidin-3-yl (5-(3-fluorophenyl)-2,2-dimethyl-2,3-dihydrobenzofuran-3-yl)carbamate] it was 6.92; in that of `CC1(C)Oc2cc(-c3cccc(F)c3)ccc2C1NC(=O)O[C@@H]1CN2CCC1CC2` (stereo partly drawn) [Example 407, (S)-quinuclidin-3-yl (6-(3-fluorophenyl)-2,2-dimethyl-2,3-dihydrobenzofuran-3-yl)carbamate], 7.35; in that of `CC1(C)Oc2cc(-c3cccc(Cl)c3)ccc2C1NC(=O)O[C@@H]1CN2CCC1CC2` (stereo partly drawn) [Example 408, (S)-quinuclidin-3-yl (6-(3-chlorophenyl)-2,2-dimethyl-2,3-dihydrobenzofuran-3-yl)carbamate], 7.80.
Consider `CC1(C)Oc2cc(-c3cccc(C(F)(F)F)c3)ccc2C1NC(=O)O[C@@H]1CN2CCC1CC2` (stereo partly drawn) [Example 409, (S)-quinuclidin-3-yl (2,2-dimethyl-6-(3-(trifluoromethyl)phenyl)-2,3-dihydrobenzofuran-3-yl)carbamate], for which, under “Homo sapiens, Jurkat, 72 h”, the pIC50 was 7.83.
`CC1(C)Oc2cc(-c3cccc(OC(F)(F)F)c3)ccc2C1NC(=O)O[C@@H]1CN2CCC1CC2` (stereo partly drawn) [Example 410, (S)-quinuclidin-3-yl (2,2-dimethyl-6-(3-(trifluoromethoxy)phenyl)-2,3-dihydrobenzofuran-3-yl)carbamate] gave a pIC50 (Homo sapiens, Jurkat, 72 h) of 7.89.
As for “(S)-quinuclidin-3-yl (6-(3-(2-methoxyethoxy)phenyl)-2,2-dimethyl-2,3-dihydrobenzofuran-3-yl)carbamate [Example 411]”, the pIC50 (read-out: IC50) is 7.10.
